Data: patent US20140322705A1, “Cancer diagnostic and cancer therapeutic” (Thomas Jefferson University, priority 2010, published 2014)
Entries after “also recorded” stand apart in the source; their conditions may differ.

Key:
MDA-MB-231 cells [1] = experiment: Modified Boyden Chamber (Transwell) cell migration assay; type: cell-based, human; details: 10 mM in lower chamber
Protocol: 3-hydroxy-butyrate or L-lactate can function as chemo-attractants. shown using a modified “Boyden Chamber” assay, employing Transwell cell culture inserts. MDA-MB-231 cells were placed in the upper chambers, and 3-hydroxy-butyrate (10 mM) or L-lactate (10 mM) were introduced into the lower chambers. Note that both 3-hydroxy-butyrate and L-lactate promoted cancer cell migration by nearly 2-fold. *p<0.05, control (vehicle alone) versus 3-hydroxy-butyrate or L-lactate (Student's t-test).
Next, whether 3-hydroxy-butyrate or L-lactate can function as chemo-attractants was assessed, using a modified “Boyden Chamber” assay, employing Transwell cell culture inserts. MDA-MB-231 cells were placed in the upper chambers, and 3-hydroxy-butyrate (10 mM) or L-lactate (10 mM) were introduced into the lower chambers. […] Thus, the metabolic products of aerobic glycolysis can also function as chemo-attractants for cancer cells, probably via a form of nutrient sensing.

[2] = test system: MDA-MB-231 breast cancer cells; experiment: MDA-MB-231 flank xenograft tumor growth; type: in vivo, athymic nude mice; details: 500 mg/kg daily i.p.; tumor volume at 3 weeks post tumor cell injection
Protocol: A xenograft model was employed in which MDA-MB-231 breast cancer cells injected into the flanks of athymic nude mice to evaluate the potential tumor promoting properties of the products of aerobic glycolysis (such as 3-hydroxy-butyrate and L-lactate). Tumor growth was assessed by measuring tumor volume, at 3-weeks post tumor cell injection. During this time period, mice were administered either PBS alone, or PBS containing 3-hydroxy-butyrate (500 mg/kg) or L-lactate (500 mg/kg), via daily intra-peritoneal (i.p.) injections. Note that 3-hydroxy-butyrate is sufficient to promote an ˜2.5-fold increase in tumor growth, relative to the PBS-alone control. Under these conditions.
To evaluate the potential tumor promoting properties of the products of aerobic glycolysis (such as 3-hydroxy-butyrate and L-lacate), a xenograft model employing MDA-MB-231 breast cancer cells injected into the flanks of athymic nude mice was used. Tumor growth was assessed by measuring tumor volume, at 3-weeks post tumor cell injection. During this time period, mice were administered either PBS alone, or PBS containing 3-hydroxy-butyrate (500 mg/kg) or L-lactate (500 mg/kg), via daily intra-peritoneal (i.p.) injections.

[3] = test system: MDA-MB-231 breast cancer cells; experiment: Tumor vascularity by CD31 immuno-staining of xenograft tumors; type: in vivo, athymic nude mice; details: 500 mg/kg daily i.p.; primary xenograft tumors
Protocol: Tumor angiogenesis could account for the tumor-promoting properties of 3-hydroxy-butyrate. Thus, the status of tumor vascularity was evaluated using antibodies directed against CD31. However, the vascular density (number of vessels per field) was not increased by the administration of either 3-hydroxy-butyrate or L-lactate. Thus, other mechanisms, such as the “Reverse Warburg Effect” may be operating to increase tumor growth. n.s., not significant.
One mechanism that could account for the tumor-promoting properties of 3-hydroxy-butyrate is increased tumor angiogenesis. Thus, the status of tumor vascularity using antibodies directed against CD31 was evaluated. […] Thus, other mechanisms, such as the “Reverse Warburg Effect” may be operating to increase tumor growth.

MDA-MB-231 cells [4] = experiment: Lung colonization (metastasis) assay, tail vein injection; type: in vivo, athymic nude mice; details: 7 weeks post-injection; India ink staining
Protocol: To examine the effect of 3-hydroxy-butyrate and L-lactate on cancer cell metastasis, a well-established lung colonization assay was used, where MDA-MB-231 cells are injected into the tail vein of athymic nude mice. After 7 weeks post-injection, the lungs were harvested and the metastases were visualized with India ink staining. Using this approach, the lung parenchyma stains black, while the tumor metastatic foci remain unstained, and appear white. The number of metastases per lung lobe was scored. Note that relative to PBS-alone, the administration of L-lacate stimulated the formation of metastatic foci by ˜10-fold. Under these conditions, 3-hydroxy-butryate had no effect on metastasis formation. *p<0.01, PBS alone versus L-lactate (Student's t-test and ANOVA); *p<0.05, PBS alone versus L-lactate (Mann-Whitney test).
The effect of 3-hydroxy-butyrate and L-lactate on cancer cell metastasis were measured. For this purpose, a well-established lung colonization assay was used, where MDA-MB-231 cells are injected into the tail vein of athymic nude mice. After 7 weeks post-injection, the lungs were harvested and the metastases were visualized with India ink staining. In this method, the lung parenchyma stains black, while the tumor metastatic foci remain unstained, and appear white. For quantitation purposes. the number of metastases per lung lobe was scored.

MCF7 cancer cells = details: L-lactate added to culture media; cited from earlier work

SMILES	promotion of cancer cell migration versus vehicle alone (MDA-MB-231 cells [1]) [fold]	increase in tumor growth (tumor volume) relative to PBS-alone control [2]	vascular density (number of vessels per field), CD31 [3]	formation of lung metastatic foci (metastases per lung lobe) relative to PBS-alone (MDA-MB-231 cells [4])	mitochondrial mass (MCF7 cancer cells)	appearance of lung metastatic foci versus PBS-alone controls (representative images) (MDA-MB-231 cells [4])
CC(O)CC(=O)O (stereo not shown) [3-hydroxy-butyrate]	~2	~2.5 fold	not increased; also recorded: without any significant increases	no effect		
C[C@H](O)C(=O)O [L-lactate]	~2	no significant effect; also recorded: did not increase	not increased	~10 fold	dramatically increase	more numerous, and are also larger in size
